Paper PMC5902495, “Synthesis of Symmetrical Tetrameric Conjugates of the Radiolanthanide Chelator DOTPI for Application in Endoradiotherapy by Means of Click Chemistry” (Frontiers in Chemistry, 2018)
Like-named read-outs stand apart in the source and are kept apart here.

Key:
[1] = Protonation constants of ligands by pH-potentiometry; assay type: physicochemical; conditions: 25°C, I = 0.15 M NaCl
From the text: (§1) For determining the protonation constants of DOTPI(Chx)4 and DOTPI three parallel pH-potentiometric titration were made with 0.2 M NaOH in 0.002 M ligand solutions. The stability and protonation constants of the Ca^II and Zn^II complexes formed with DOTPI(Chx)4 and DOTPI ligands have been determined by direct pH-potentiometric titration made at 1:1 and 2:1 metal to ligand concentration ratios. (the concentration of ligands was 0.002 M). For the calculation of the logKML and logKMLHi values, the mL base—pH data used were obtained in the pH range 1.7–12.0.
(§2) For pH measurements and titrations, a Metrohm 785 DMP Titrino titration workstation and a Metrohm-6.0233.100 combined electrode were used. Equilibrium measurements were carried out at a constant ionic strength (0.15 M NaCl) in 6 mL samples at 25°C. The solutions were stirred, and constantly purged with N2. The titrations were performed in a pH range of 1.7–11.7. KH-phthalate (pH = 4.005) and borax (pH = 9.177) buffers were used to calibrate the pH meter. For calculation of [H^+] from measured pH values, the method proposed by Irving et al. was used (Irving et al., [1967]). A 0.01 M HCl solution was titrated with the standardized NaOH solution in the presence of 0.1 M NaCl. Differences between the measured (pHread) and calculated pH (–log[H^+]) values were used to obtain the equilibrium H^+ concentration from the pH values, measured in the titration experiments. For the equilibrium calculations, the stoichiometric water ionic product (pKw) is also needed to calculate [H^+] values in basic conditions. The VNaOH – pHread data pairs of the HCl – NaOH titration obtained in the pH range 10.5–12 have been used to calculate the pKw value (pKw = 13.85). For the calculation of the equilibrium constants the program PSEQUAD (Zekany and Nagypal, [1985]) was used.
(§3) 2. Protonation and complexation equilibria of DOTPI and
(§4) The protonation processes of the DOTPI and DOTPI(Chx)4, ligands have been studied by pH-potentiometry. The protonation constants (logKiH) of ligands are defined according to Eq. (1).
(§5) The stability and protonation constants of DOTPI and DOTPI(Chx)4 complexes with several metal ions were determined by pH-potentiometric and UV/Vis spectrophotometric, methods.
(§6) The stability and protonation constants of the metal complexes formed with the DOTPI and DOTPI(Chx)4, ligands, defined by Eqs. […]
(§7) where i = 1, 2, 3…5. The KML and KMHiL values characterizing the formation of DOTPI and DOTPI(Chx)4 complexes of CaII and ZnII have been calculated from the pH-potentiometric titration data obtained at 1:1 metal to ligand concentration ratios. The protonation constants of the complexes Cu(DOTPI) and Cu(DOTPI( Chx)4) were also determined by pH-potentiometric titrations, made at 1:1 metal to ligand concentration ratio. The pH-potentiometric titrations of DOTPI ligand were also performed at 2:1 metal-to-ligand ratio in order to examine the possible formation of dinuclear CaII-, ZnII-, and CuII-DOTPI complexes.
The stability and protonation constants of the dinuclear complexes formed with the DOTPI […]
where i=1 and 2. In calculating the equilibrium constants, the best fit of the mL base – pH data was obtained by assuming the formation of ML, MHL, MH 2L, MH3L, MH4L, MH5L, M2L, M2LH, and M2LH2 complexes with DOTPI and DOTPI(Chx)4.
(also on this page, place not known: ]H][LH[ ]LH[K 1i iH + − = DOTPI( Chx)4 f ormed ]L][M[ ]ML[K ML = ]H][LMH[ ]LMH[K 1i i LMHi + − = i 3 …5. Ca II Zn II -potentiometric pH - metal -to-ligand Cu II-DOTPI ]M][ML[ ]LM[K 2 LM2 = ]H][LHM[ ]LHM[K 1i2 i2 LHM i2 + − = pH MH 4L,) […]

[2] = 25°C, I = 0.1 M Me4NCl; ref Lázár et al., [1991]; cited from earlier work
[3] = 25°C, I = 0.1 M Me4NCl; ref Lázár et al., [1991]; cited from earlier work; remark: listed apart in the source
[4] = Stability and protonation constants of Ca^II complexes (pH-potentiometry); assay type: physicochemical; conditions: 25°C, 0.15 M NaCl
From the text: as §1, §2, §3, §4, §5, §6
as §7, with “The pH-potentiometric titrations of DOTPI ligand were also performed at 2:1 metal-to-ligand ratio in order to examine the possible formation of dinuclear CaII-, ZnII-, and CuII-DOTPI complexes.” left out

[5] = 25°C, I = 0.1 M Me4NCl, ref Šimeček et al., [2013], cited from earlier work
[6] = 25°C, I = 0.1 M Me4NCl; ref Lázár et al., [1991]; cited from earlier work; remark: listed apart in the source
[7] = distant carboxylate groups of DOTPI not considered

log K1H [1]: 10.27 (1)
log K2H [1]: 8.42 (1)
log K3H [1]: 5.45 (2)
log K4H [1]: 4.78 (2)
log K5H [1]: 4.42 (2)
log K6H [1]: 3.88 (2)
log K7H [1]: 2.83 (2)
log K8H [1]: 1.17 (2)
Σlog KiH (total basicity) [1, 7]: 22.69
protonation constant CaH2L [4]: 5.04 (9)
protonation constant CaHL [4]: 6.49 (4)
stability constant of dinuclear complex Ca2L [4]: 2.85 (5)
SMILES: O=C(O)CCP(=O)(O)CN1CCN(CP(=O)(O)CCC(=O)O)CCN(CP(=O)(O)CCC(=O)O)CCN(CP(=O)(O)CCC(=O)O)CC1 [DOTPI, 1,4,7,10-tetraazacyclododecane-1,4,7,10-tetrakis[methylene(2-carboxyethylphosphinic acid)]]
logKML, CuL [2]: 23.11
logKML, ZnL [3]: 18.57
Σlog KiH (total basicity) [5, 7]: 24.91
log K1H [5]: 11.58
log K2H [5]: 8.90
log K3H [5]: 5.65
log K4H [5]: 4.98
log K5H [5]: 4.61
log K6H [5]: 4.07
log K7H [5]: 3.12
log K8H [5]: 1.31
logKML, CaL [6]: 12.48
